Experimental data from patent US20110033393A1, “Hydrazone Compounds and Their Use” (priority 2009, published 2011).

Target: T1, human TRPM5 ion channel (Homo sapiens, UniProt Q9NZQ8)
T1 sequence (Q9NZQ8 1-1165): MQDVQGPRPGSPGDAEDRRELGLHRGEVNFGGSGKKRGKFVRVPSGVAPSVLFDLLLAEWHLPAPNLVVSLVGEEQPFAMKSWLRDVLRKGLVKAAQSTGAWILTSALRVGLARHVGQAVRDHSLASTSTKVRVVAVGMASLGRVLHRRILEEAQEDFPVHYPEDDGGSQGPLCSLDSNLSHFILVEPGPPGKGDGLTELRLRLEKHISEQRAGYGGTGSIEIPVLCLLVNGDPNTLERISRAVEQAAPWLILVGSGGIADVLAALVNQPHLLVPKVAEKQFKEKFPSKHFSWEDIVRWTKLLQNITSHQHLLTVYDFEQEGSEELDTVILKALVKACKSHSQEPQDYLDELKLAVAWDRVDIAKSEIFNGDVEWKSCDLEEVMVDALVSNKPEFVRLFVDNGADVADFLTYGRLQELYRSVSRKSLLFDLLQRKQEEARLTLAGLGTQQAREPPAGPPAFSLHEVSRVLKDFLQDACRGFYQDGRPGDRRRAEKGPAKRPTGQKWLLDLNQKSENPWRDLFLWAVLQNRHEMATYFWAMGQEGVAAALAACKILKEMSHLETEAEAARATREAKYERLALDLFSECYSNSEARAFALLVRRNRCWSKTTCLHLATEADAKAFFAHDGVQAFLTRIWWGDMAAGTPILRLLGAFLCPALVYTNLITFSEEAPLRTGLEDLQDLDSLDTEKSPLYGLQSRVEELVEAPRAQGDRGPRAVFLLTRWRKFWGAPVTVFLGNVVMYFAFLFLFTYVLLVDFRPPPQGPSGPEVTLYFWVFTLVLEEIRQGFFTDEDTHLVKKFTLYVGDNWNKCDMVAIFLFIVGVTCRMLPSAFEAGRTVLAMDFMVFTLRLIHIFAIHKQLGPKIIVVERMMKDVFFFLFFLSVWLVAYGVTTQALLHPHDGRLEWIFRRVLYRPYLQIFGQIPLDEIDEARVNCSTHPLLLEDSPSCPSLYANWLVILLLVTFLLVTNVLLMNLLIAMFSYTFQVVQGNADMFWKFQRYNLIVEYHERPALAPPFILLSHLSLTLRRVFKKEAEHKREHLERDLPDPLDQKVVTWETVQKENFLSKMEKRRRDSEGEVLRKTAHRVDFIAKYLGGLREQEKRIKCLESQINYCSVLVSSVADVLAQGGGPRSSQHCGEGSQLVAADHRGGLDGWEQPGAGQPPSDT
Experiment: FLIPR-based assay for membrane potential and calcium mobilization (TRPM5 inhibiting activity)
Type: cell-based
Details: live cells, 30° C., read-out: hTrpM5 IC50
Method in brief: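 Live cells expressing human TRPM5, assayed at 30 °C by FLIPR readout of membrane potential and calcium mobilization. Ten serial 2- or 3-fold dilutions from no more than 100 μM. IC50 derived by curve fitting of concentration-effect data.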

IC50: 420 nM
SMILES: Cc1cc(/C=N/NC(=O)C2CC2c2ccccc2)cc2cccnc12 (racemic) [Example 10, trans-N′-((8-Methylquinolin-6-yl)methylene)-2-phenylcyclopropanecarbohydrazide]
